According to patent US5786332A, “Cytokine restraining agents and methods of use in pathologies and conditions associated with altered cytokine levels” (Trega Biosciences, Inc., priority 1995, dated 1998):

Columns and labels:
Type in all cases: in vivo
[1] = system: Balb/c mice; assay: Lipopolysaccharide-induced lethality (IP dosing); conditions: 11 × 300 μg/mouse IP (3.3 mg total); 0.6 mg LPS
Description: These experiments were performed based on information reported by Rivier et al., Endocrinology 125:2800-2805 (1989), which is incorporated herein by reference. Adult female Balb/c mice were provided food and water ad libitum. Mice were injected IP every four hr for 40 hr with 30 to 300 μg EX-2, EX-3 or EX-4 in 0.2 ml saline (treated group) or with 0.2 ml saline, alone (control group) (10 mice per group). Immediately following the first injection, 0.6 mg LPS endotoxin in 0.2 ml saline was administered to each mouse. Following LPS injection, EX-2 or saline was administered to the treated mice or the control mice, respectively, every 4 hr for 36 hr.

[2] = system: Sprague-Dawley rats; assay: Interleukin-1β-induced hyperalgesia (paw pressure); conditions: 1 μg IP; 2 hr after IL-1β intra plantar
Description: These experiments were performed using a modification of the methods described by Poole et al., Br. J. Pharmacol. 106:489-492 (1992); Follenfant et al., Br. J. Pharmacol. 98:41-43 (1989); and Randall and Sellito, Arch. Internatl. Pharmacodyn. 111:409-419 (1957), each of which is incorporated herein by reference. Adult male Sprague-Dawley rats (175-275 g) were tested for hyperalgesia by a paw pressure technique using variable pressure instrumentation (IITC Life Sciences; Woodland Hills, Calif.). Rats were acclimated to the housing environment and were handled for three days prior to beginning a training session. On the day before the hyperalgesia experiments was to begin, each rat was placed into a sock and two variable paw pressure tests were performed 15 min apart.
Approximately 5-10% of the rats were non-responders and were eliminated from further experiments.
Animals that responded to the paw pressure were pretreated by IP injection of various concentrations of EX-2 in a volume of 1 ml/kg (treated) or saline, alone (control). After 20 min, 100 μl of IL-1β (1U/100 μl) was administered to rats via intra plantar injection. Two hr after IL-1 administration, rats were subjected to two additional paw pressure tests and the increase in mm Hg of pressure that could be applied to the EX-2-treated rats as compared to the control rats was determined.

[3] = system: Harlan Sprague-Dawley rats; assay: Adult respiratory distress syndrome: LPS-induced PMN count in broncho-alveolar lavage; conditions: 100 μg/kg IP; LPS 5 mg/kg intratracheal; lavage at 6 hr
Description: These experiments were performed using a modification of the methods described by Ulich et al., Am. J. Pathol. 141:61-68 (1992) and by Wheelden et al., Lab. Animals 26:29-37 (1992), each of which is incorporated herein by reference. Male Harlan Sprague-Dawley rats were anesthetized using a mixture of 70 mg/kg ketamine and 6 mg/kg rompun injected IP. A 2-3 cm incision was made in the neck of each anesthetized rat and its trachea was exposed by blunt dissection of the surrounding soft tissue. The rats were suspended on a near vertical slab and intratracheal injections were performed by inserting into the exposed trachea, at a point 1 cm posterior to the larynx, a 25 G×1/2 inch needle attached to a 1 cc syringe.
Each rat received 0.5 ml/kg of saline or 0.5 ml/kg of 10 mg/ml (5 mg/kg) LPS endotoxin via slow intratracheal administration. Immediately following administration of the LPS endotoxin, rats were injected IP with 1 ml/kg of either saline (control) or saline containing various concentrations of EX-2 (treated). The rats were maintained in the elevated position for 1-2 min to facilitate distribution of the LPS and saline into the lung. The incisions were closed and the rats were allowed to recover. […]
neutrophils) in the broncho-alveolar lavage fluid were counted in the EX-2-treated rats and compared with the number in the control rats.

[4] = system: Wistar rats; assay: LPS-induced temperature increase (fever); conditions: 6 hr following LPS
Description: Male Wistar rats (45-75 days old) were placed in a temperature controlled room held at 26° C., which is thermoneutral for the normal body temperature of rats, and were maintained in the room with free access to food and water for 24 hr prior to testing. On the morning of the study, rats were marked for identification and weighed. The temperature of each rat was determined by placing the animal in a restraining cage designed to minimize stress and inserting a temperature probe (YSI probe #402) 3-5 cm into the animal's rectum. The temperature was recorded 15 sec after the reading stabilized. Measurements were repeated 1 hr later to establish a baseline temperature for each rat.
After the baseline temperatures were established, rats were injected IP with saline, IL-1β or LPS endotoxin.
Rats then were injected IP with either saline (control) or various concentrations of EX-2, EX-3, or EX-4 (treated). The temperature of the rats was measured every hr for 6 hr and the inhibition by EX-2, EX-3, or EX-4 of the rise in temperature due to IL-1β or LPS was determined.
In addition, treatment with 50 or 150 μg/kg EX-2 inhibited LPS-induced fever by 45% or 52%, respectively, when measured 6 hr following LPS injection. Furthermore, treatment with 150 μg/kg EX-3 or EX-4 inhibited LPS-induced fever by 57% and 52%, respectively (Table II).

## Ac-Nle-Gln-His-(D)Phe-Arg-(D)Trp-Gly-NH2 [EX-2]
[1]
  Inhibition of LPS-induced Lethality (increase in survival vs control): 83%
[2]
  Reduction in IL-1-induced Hyperalgesia (increase in tolerated paw pressure vs control): 125%
[3]
  Reduction in LPS-induced PMN Count: 58%
[4]; 50 μg/kg IP
  Reduction in LPS-induced Fever: 45%
[4]; 150 μg/kg IP
  Reduction in LPS-induced Fever: 52%
